Measurements taken from US8685992B2, “Histone deacetylase inhibitors based simultaneously on trisubstituted 1H-pyrroles and aromatic and heteroaromatic spacers” (Universidad del País Vasco, priority 2009, dated 2014).

Tests used:
LoVo = experiment: Cancer cell growth inhibition, LoVo; assay type: cell-based, human; conditions: Homo sapiens, Colorectal Cancer, 72 h treatment
Protocol: (§1) Cell culture-based assays were used to evaluate the ability of compounds of the invention to inhibit cancer cell growth inhibition.
(§2) Cells were obtained from the American Type Culture Collection (ATCC). Cells were cultured at 37° C. with 5% CO2 in the appropriate growth medium (see table below), and harvested respectively during the logarithmic growth period and counted with hemocytometer. The cell viability was over 98% by trypan blue exclusion. Cell concentrations were adjusted between 5×10^4 and 2×10^5 cells/ml with respective medium.
(§3) Stock solutions of test compounds and positive drugs Doxorubicin (Zhejiang, Haizheng, China), Paclitaxel (Beijing, Xiehe, China), Vincristin (Shenzhen Wanle, China), 5-FU (Tianjin jinyaoanjisuan, China), Irinotecan (Jiangsu Hengrui, China) and Cisplatin Nanjing zhiyao, China) were prepared in dimethyl sulphoxide (DMSO) or PBS at 20 mM.
(§4) All treatments were performed in triplicate. 10 μl drug solution was added to each well and incubated for 72 hours. At the end of the incubation, 20 μl of the freshly prepared MTS/PMS mixture solution was added to each well and incubated for 4 hours at 37° C. in a humidified, 5% CO2 atmosphere. Absorbance was read at 490 nm using SpectraMAX Plus microplate spectrophotometer. […] In order to calculate IC50, a dose-responsive curve was fitted using nonlinear regression model with a sigmoidal dose response.

NCI-H460 = experiment: Cancer cell growth inhibition, NCI-H460; assay type: cell-based, human; conditions: Homo sapiens; NCI-H460, Lung Cancer, 72 h treatment
Protocol: as §1, §2, §3, §4

DU145 = experiment: Cancer cell growth inhibition, DU145; assay type: cell-based, human; conditions: Homo sapiens, DU-145; DU145, Prostate Cancer, 72 h treatment
Protocol: as §1, §2, §3, §4

Human HDAC1 = Human HDAC1 (Homo sapiens (Human), UniProt Q13547); experiment: HDAC1 fluorogenic peptide deacetylation assay; assay type: biochemical; conditions: human HDAC1, 50 μM substrate, 30° C., 2 h; read-out: IC50 (nM) of enzyme activity HDAC1
Chain of Human HDAC1 (Q13547 whole entry): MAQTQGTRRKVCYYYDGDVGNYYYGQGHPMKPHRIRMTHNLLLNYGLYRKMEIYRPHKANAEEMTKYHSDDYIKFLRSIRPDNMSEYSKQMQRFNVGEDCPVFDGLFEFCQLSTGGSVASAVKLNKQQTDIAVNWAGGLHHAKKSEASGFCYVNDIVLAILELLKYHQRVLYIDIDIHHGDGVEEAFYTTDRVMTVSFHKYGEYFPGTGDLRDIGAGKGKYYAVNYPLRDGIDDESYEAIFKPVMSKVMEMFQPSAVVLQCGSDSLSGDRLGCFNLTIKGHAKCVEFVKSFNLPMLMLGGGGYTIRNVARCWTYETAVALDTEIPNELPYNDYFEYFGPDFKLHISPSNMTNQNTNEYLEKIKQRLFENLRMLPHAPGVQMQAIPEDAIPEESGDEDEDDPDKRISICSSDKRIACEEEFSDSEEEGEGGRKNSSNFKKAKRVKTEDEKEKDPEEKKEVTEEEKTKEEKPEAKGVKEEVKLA

MDA-MB-231 = experiment: Cancer cell growth inhibition, MDA-MB-231; assay type: cell-based, human; conditions: Homo sapiens; MDA-MB-231, Breast Cancer, 72 h treatment
Protocol: as §1, §2, §3, §4

U87MG = experiment: Cancer cell growth inhibition, U87MG; assay type: cell-based, human; conditions: Homo sapiens, U-87 MG, Glioblastoma, 72 h treatment
Protocol: as §1, §2, §3, §4

SW620 = experiment: Cancer cell growth inhibition, SW620; assay type: cell-based, human; conditions: Homo sapiens, SW-620; SW620, Colorectal Cancer, 72 h treatment
Protocol: as §1, §2, §3, §4

MCF-7-FL = experiment: Cancer cell growth inhibition, MCF-7-FL; assay type: cell-based; conditions: Homo sapiens, Breast Cancer, 72 h treatment
Protocol: as §1, §2, §3, §4

HT-29 = experiment: Cancer cell growth inhibition, HT-29; assay type: cell-based, human; conditions: Homo sapiens; HT-29, Colorectal Cancer, 72 h treatment
Protocol: as §1, §2, §3, §4

Hep3B = experiment: Cancer cell growth inhibition, Hep3B; assay type: cell-based, human; conditions: Homo sapiens, Liver Cancer, 72 h treatment
Protocol: as §1, §2, §3, §4

MCG803 = experiment: Cancer cell growth inhibition, MCG803; assay type: cell-based, human; conditions: Homo sapiens; MCG803, Gastric Cancer, 72 h treatment
Protocol: as §1, §2, §3, §4

Human HDAC3/NcoR2 = Human HDAC3/NcoR2 (Homo sapiens (Human), UniProt O15379); experiment: HDAC3 fluorogenic peptide deacetylation assay; assay type: biochemical; conditions: human HDAC3/NcoR2, 50 μM substrate, 30° C., 2 h; read-out: IC50 (nM) of enzyme activity HDAC3
Chain of Human HDAC3/NcoR2 (O15379 whole entry): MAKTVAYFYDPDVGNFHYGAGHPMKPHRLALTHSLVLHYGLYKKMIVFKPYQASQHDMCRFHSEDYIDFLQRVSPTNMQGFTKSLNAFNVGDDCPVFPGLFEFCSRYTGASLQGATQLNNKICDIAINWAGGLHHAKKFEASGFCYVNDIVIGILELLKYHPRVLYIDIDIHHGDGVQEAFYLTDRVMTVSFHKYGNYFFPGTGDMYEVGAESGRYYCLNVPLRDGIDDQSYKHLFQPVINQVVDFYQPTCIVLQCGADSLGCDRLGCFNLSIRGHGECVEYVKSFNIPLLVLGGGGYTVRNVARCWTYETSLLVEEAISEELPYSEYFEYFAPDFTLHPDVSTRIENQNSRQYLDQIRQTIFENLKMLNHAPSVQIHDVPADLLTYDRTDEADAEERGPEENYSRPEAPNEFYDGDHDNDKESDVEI
Chain of Human HDAC3/NcoR2 (Q9Y618 395-489 partner): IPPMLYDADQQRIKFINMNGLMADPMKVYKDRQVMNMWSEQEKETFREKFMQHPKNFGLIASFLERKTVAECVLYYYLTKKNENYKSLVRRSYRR

HT-1080 = experiment: Cancer cell growth inhibition, HT-1080; assay type: cell-based; conditions: Homo sapiens; HT-1080, Fibrosarcoma, 72 h treatment
Protocol: as §1, §2, §3, §4

Calu-6 = experiment: Cancer cell growth inhibition, Calu-6; assay type: cell-based, human; conditions: Homo sapiens; Calu-6, Lung Cancer, 72 h treatment
Protocol: as §1, §2, §3, §4

SK-MES-1 = experiment: Cancer cell growth inhibition, SK-MES-1; assay type: cell-based, human; conditions: Homo sapiens; SK-MES-1, Lung Cancer, 72 h treatment
Protocol: as §1, §2, §3, §4

SK-HEP-1 = experiment: Cancer cell growth inhibition, SK-HEP-1; assay type: cell-based; conditions: Homo sapiens, SK-HEP1; SK-HEP-1, Liver Cancer, 72 h treatment
Protocol: as §1, §2, §3, §4

143b = experiment: Cancer cell growth inhibition, 143b; assay type: cell-based; conditions: Homo sapiens, Osteosarcoma, 72 h treatment
Protocol: as §1, §2, §3, §4

NCI-H226 = experiment: Cancer cell growth inhibition, NCI-H226; assay type: cell-based, human; conditions: Homo sapiens; NCI-H226, Lung Cancer, 72 h treatment
Protocol: as §1, §2, §3, §4

SK-BR-3 = experiment: Cancer cell growth inhibition, SK-BR-3; assay type: cell-based, human; conditions: Homo sapiens; SK-BR-3, Breast Cancer, 72 h treatment
Protocol: as §1, §2, §3, §4

Human HDAC2 = Human HDAC2 (Homo sapiens (Human), UniProt Q92769); experiment: HDAC2 fluorogenic peptide deacetylation assay; assay type: biochemical; conditions: human HDAC2, 50 μM substrate, 30° C., 2 h; read-out: IC50 (nM) of enzyme activity HDAC2
Chain of Human HDAC2 (Q92769 whole entry): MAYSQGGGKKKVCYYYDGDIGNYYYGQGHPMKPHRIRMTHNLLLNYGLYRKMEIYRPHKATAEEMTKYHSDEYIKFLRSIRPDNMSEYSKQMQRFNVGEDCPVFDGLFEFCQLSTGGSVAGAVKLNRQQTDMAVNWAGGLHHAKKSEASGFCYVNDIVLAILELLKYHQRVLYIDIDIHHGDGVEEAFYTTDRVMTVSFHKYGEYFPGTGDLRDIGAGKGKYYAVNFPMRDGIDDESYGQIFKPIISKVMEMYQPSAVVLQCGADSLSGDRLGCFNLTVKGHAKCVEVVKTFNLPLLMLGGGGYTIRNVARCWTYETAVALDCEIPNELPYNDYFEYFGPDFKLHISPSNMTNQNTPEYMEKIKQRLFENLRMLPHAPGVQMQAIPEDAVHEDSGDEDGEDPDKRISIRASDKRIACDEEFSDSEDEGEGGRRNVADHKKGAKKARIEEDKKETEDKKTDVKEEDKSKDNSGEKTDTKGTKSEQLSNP

HCT-116 = experiment: Cancer cell growth inhibition, HCT-116; assay type: cell-based, human; conditions: Homo sapiens; HCT-116, Colorectal Cancer, 72 h treatment
Protocol: as §1, §2, §3, §4

A549 = experiment: Cancer cell growth inhibition, A549; assay type: cell-based, human; conditions: Homo sapiens; A549, Lung Cancer, 72 h treatment
Protocol: as §1, §2, §3, §4

Human HDAC6 = Human HDAC6 (Homo sapiens (Human), UniProt Q9UBN7); experiment: HDAC6 fluorogenic peptide deacetylation assay; assay type: biochemical; conditions: human HDAC6, 50 μM substrate, 30° C., 2 h; read-out: IC50 (nM) of enzyme activity HDAC6
Chain of Human HDAC6 (Q9UBN7 whole entry): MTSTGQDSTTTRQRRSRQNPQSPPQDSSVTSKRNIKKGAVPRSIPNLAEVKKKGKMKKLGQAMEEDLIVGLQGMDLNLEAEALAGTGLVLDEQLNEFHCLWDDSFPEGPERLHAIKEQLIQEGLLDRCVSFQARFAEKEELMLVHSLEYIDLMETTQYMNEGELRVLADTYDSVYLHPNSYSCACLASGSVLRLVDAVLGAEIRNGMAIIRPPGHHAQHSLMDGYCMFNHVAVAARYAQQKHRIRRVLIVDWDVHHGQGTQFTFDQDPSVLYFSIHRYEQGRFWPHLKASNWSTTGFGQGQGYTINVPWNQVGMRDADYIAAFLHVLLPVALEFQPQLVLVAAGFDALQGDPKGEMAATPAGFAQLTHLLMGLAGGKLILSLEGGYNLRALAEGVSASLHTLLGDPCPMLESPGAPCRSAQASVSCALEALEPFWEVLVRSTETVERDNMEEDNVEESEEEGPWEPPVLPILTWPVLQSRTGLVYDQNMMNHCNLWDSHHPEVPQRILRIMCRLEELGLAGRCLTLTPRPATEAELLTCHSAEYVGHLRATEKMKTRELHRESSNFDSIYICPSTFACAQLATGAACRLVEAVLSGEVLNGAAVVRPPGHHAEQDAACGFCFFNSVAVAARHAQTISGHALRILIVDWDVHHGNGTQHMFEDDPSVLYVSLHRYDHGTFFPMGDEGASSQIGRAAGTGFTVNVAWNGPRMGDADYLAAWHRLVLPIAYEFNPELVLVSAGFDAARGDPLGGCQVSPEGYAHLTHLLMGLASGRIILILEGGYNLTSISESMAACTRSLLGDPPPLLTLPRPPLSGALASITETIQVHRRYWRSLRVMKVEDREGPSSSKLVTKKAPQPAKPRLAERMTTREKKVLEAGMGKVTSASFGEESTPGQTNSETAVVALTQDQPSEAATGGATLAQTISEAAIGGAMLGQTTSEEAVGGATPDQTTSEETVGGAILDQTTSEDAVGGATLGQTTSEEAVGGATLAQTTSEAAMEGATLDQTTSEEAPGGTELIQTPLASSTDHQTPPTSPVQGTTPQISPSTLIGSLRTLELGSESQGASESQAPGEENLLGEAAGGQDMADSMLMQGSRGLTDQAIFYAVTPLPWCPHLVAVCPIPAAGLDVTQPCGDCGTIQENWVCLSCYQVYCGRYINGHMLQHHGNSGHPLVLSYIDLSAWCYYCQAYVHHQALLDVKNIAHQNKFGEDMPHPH

CNE2 = experiment: Cancer cell growth inhibition, CNE2; assay type: cell-based, human; conditions: Homo sapiens, CNE-2; CNE2, Nasopharyngeal Cancer, 72 h treatment
Protocol: as §1, §2, §3, §4

Human HDAC9 = Human HDAC9 (Homo sapiens (Human), UniProt Q9UKV0); experiment: HDAC9 fluorogenic peptide deacetylation assay; assay type: biochemical; conditions: human HDAC9, 50 μM substrate, 30° C., 2 h; read-out: IC50 (nM) of enzyme activity HDAC9
Chain of Human HDAC9 (Q9UKV0 other isoform, or with tags, fused parts or gaps): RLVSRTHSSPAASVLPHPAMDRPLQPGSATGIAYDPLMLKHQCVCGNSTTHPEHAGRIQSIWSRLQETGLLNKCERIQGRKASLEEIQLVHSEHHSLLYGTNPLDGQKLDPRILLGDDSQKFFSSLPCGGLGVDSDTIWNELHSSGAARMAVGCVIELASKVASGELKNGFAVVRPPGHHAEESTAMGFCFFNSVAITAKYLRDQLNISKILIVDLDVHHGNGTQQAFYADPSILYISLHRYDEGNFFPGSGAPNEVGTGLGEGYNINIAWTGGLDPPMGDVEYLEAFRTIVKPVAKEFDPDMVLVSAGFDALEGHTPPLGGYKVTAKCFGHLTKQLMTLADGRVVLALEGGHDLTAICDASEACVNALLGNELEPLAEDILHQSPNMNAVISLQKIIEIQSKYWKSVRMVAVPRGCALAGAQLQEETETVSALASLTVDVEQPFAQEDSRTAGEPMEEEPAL

Human HDAC5 = Human HDAC5 (Homo sapiens (Human), UniProt Q9UQL6); experiment: HDAC5 fluorogenic peptide deacetylation assay; assay type: biochemical; conditions: human HDAC5, 50 μM substrate, 30° C., 2 h; read-out: IC50 (nM) of enzyme activity HDAC5
Chain of Human HDAC5 (Q9UQL6 other isoform, or with tags, fused parts or gaps): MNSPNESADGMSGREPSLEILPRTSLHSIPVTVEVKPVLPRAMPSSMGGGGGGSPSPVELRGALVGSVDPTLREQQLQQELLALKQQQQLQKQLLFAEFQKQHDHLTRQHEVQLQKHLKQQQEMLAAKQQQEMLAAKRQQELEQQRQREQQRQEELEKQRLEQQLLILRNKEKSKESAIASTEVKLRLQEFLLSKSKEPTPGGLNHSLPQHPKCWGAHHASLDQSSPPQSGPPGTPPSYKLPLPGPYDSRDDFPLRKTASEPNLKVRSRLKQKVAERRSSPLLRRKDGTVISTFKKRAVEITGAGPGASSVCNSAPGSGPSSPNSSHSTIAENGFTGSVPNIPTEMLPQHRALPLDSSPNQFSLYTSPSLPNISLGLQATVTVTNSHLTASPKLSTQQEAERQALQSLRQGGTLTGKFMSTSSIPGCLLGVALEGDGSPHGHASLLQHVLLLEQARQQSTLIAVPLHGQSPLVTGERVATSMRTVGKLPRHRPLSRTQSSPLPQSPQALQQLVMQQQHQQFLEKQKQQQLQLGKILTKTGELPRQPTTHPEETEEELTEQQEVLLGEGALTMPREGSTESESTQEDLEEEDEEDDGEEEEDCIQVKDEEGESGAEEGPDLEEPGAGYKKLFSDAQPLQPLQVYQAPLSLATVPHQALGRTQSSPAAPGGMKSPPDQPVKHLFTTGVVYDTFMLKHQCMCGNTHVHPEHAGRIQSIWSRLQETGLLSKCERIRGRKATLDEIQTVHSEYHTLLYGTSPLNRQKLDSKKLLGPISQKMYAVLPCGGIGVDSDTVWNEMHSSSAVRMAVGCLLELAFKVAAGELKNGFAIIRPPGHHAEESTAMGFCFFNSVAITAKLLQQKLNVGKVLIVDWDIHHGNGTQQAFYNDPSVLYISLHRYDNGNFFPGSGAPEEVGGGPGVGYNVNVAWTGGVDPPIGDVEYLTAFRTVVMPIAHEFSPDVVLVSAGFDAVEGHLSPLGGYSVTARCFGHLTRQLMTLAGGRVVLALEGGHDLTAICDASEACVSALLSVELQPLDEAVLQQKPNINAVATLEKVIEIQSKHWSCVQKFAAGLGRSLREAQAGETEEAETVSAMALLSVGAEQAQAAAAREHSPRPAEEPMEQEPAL

Human HDAC4 = Human HDAC4 (Homo sapiens (Human), UniProt P56524); experiment: HDAC4 fluorogenic peptide deacetylation assay; assay type: biochemical; conditions: human HDAC4, 50 μM substrate, 30° C., 2 h; read-out: IC50 (nM) of enzyme activity HDAC4
Chain of Human HDAC4 (P56524 627-1084 limits assumed): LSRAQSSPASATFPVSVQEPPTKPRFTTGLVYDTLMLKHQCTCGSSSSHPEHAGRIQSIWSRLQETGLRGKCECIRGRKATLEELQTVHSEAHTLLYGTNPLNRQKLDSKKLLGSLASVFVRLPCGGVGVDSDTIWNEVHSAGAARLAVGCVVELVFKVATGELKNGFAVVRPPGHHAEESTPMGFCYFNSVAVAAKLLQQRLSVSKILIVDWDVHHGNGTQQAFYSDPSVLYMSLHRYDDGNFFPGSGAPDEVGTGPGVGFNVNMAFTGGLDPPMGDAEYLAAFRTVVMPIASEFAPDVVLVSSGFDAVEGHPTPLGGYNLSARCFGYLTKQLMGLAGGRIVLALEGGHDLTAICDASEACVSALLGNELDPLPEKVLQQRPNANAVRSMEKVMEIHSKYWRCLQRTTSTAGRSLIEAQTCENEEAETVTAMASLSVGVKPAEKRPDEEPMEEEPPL

SMILES	IC50 (LoVo)	IC50 (NCI-H460)	IC50 (DU145)	IC50 (Human HDAC1)	IC50 (MDA-MB-231)	IC50 (U87MG)	IC50 (SW620)	IC50 (HT-29)	IC50 (Hep3B)	IC50 (MCG803)	IC50 (Human HDAC3/NcoR2)	IC50 (HT-1080)	IC50 (Calu-6)	IC50 (SK-MES-1)	IC50 (SK-HEP-1)	IC50 (143b)	IC50 (NCI-H226)	IC50 (SK-BR-3)	IC50 (Human HDAC2)	IC50 (HCT-116)	other results
O=C(NO)c1ccc(CNC(=O)c2[nH]c(-c3ccoc3)cc2-c2ccc(O)cc2)cc1 [Example 9, 5-(3-furyl)-N-{4-[(hydroxyamino)carbonyl]benzyl}-3-(4-hydroxyphenyl)-1H-pyrrole-2-carboxamide]	1910 nM	10500 nM	4510 nM	378 nM	4260 nM	10800 nM	1820 nM	10700 nM	3180 nM	1100 nM	298 nM	1840 nM	9600 nM	7760 nM	4470 nM	12900 nM	11900 nM	1500 nM	909 nM	1990 nM	IC50 (MCF-7-FL): 7720 nM; IC50 (A549): 11400 nM; IC50 (Human HDAC6): 6.8 nM; IC50 (CNE2): 9540 nM
O=C(NO)c1ccc(CNC(=O)c2[nH]c(-c3ccc(O)cc3)cc2-c2ccsc2)cc1 [Example 14, N-{4-[(hydroxyamino)carbonyl]benzyl}-5-(4-hydroxyphenyl)-3-(3-thienyl)-1H-pyrrole-2-carboxamide]	498 nM	26700 nM	1520 nM	84.2 nM	4070 nM	9350 nM	1530 nM	5780 nM	2700 nM	3270 nM	124 nM	1530 nM	4070 nM	18500 nM	1750 nM	2620 nM	21300 nM	334 nM	318 nM	80.4 nM	IC50 (Human HDAC9): 277 nM; IC50 (MCF-7-FL): 6640 nM; IC50 (Human HDAC5): 172 nM; IC50 (Human HDAC4): 956 nM; IC50 (A549): 11000 nM; IC50 (Human HDAC6): 0.44 nM; IC50 (CNE2): 11400 nM
O=C(NO)c1ccc(CNC(=O)c2[nH]c(-c3ccc(O)cc3)cc2-c2ccoc2)cc1 [Example 15, 3-(3-furyl)-N-{4-[(hydroxyamino)carbonyl]benzyl}-5-(4-hydroxyphenyl)-1H-pyrrole-2-carboxamide]	150 nM	6290 nM	460 nM	49.9 nM	1830 nM	6560 nM	334 nM	2290 nM	859 nM	2010 nM	46.1 nM	594 nM	1220 nM	3510 nM	450 nM	1930 nM	3050 nM	453 nM	144 nM	82 nM	IC50 (Human HDAC9): 59 nM; IC50 (MCF-7-FL): 3310 nM; IC50 (Human HDAC5): 60 nM; IC50 (Human HDAC4): 338 nM; IC50 (A549): 2460 nM; IC50 (CNE2): 16100 nM

More lines, main results first:

IC50 (LoVo)	IC50 (NCI-H460)	IC50 (DU145)	IC50 (Human HDAC1)	IC50 (MDA-MB-231)	IC50 (U87MG)	IC50 (SW620)	IC50 (HT-29)	IC50 (Hep3B)	IC50 (MCG803)	IC50 (Human HDAC3/NcoR2)	IC50 (HT-1080)	IC50 (Calu-6)	IC50 (SK-MES-1)	IC50 (SK-HEP-1)	IC50 (143b)	IC50 (NCI-H226)	IC50 (SK-BR-3)	IC50 (Human HDAC2)	IC50 (HCT-116)	SMILES	other results
430 nM	1680 nM	338 nM	71 nM	1490 nM	1390 nM	377 nM	1010 nM	614 nM	738 nM	75 nM	160 nM	492 nM	588 nM	1100 nM	2570 nM	1760 nM	771 nM	157 nM	416 nM	COc1ccc(-c2cc(-c3ccoc3)c(C(=O)NCc3ccc(C(=O)NO)cc3)[nH]2)cc1 [Example 27, 3-(3-furyl)-N-{4-[(hydroxyamino)carbonyl]benzyl}-5-(4-methoxyphenyl)-1H-pyrrole-2-carboxamide]	IC50 (Human HDAC9): 163 nM; IC50 (Human HDAC5): 222 nM; IC50 (Human HDAC4): 1080 nM; IC50 (A549): 1020 nM; IC50 (Human HDAC6): 1.6 nM; IC50 (CNE2): 590 nM
3850 nM	12100 nM	1860 nM	184 nM	73800 nM	8960 nM	2000 nM	25900 nM	4270 nM	6080 nM	273 nM	1090 nM	726 nM	1780 nM	9930 nM	11100 nM	12600 nM	4080 nM	392 nM	1460 nM	COc1ccc(-c2cc(-c3ccsc3)c(C(=O)NCc3ccc(C(=O)NO)cc3)[nH]2)cc1 [Example 28, N-{4-[(hydroxyamino)carbonyl]benzyl}-5-(4-methoxyphenyl)-3-(3-thienyl)-1H-pyrrole-2-carboxamide]	IC50 (Human HDAC9): 478 nM; IC50 (Human HDAC5): 640 nM; IC50 (Human HDAC4): 2430 nM; IC50 (A549): 3430 nM; IC50 (Human HDAC6): 2 nM; IC50 (CNE2): 5010 nM
